Measurements taken from patent publication US7186879B2, “Screening systems and methods for identifying modulators of xenobiotic metabolism” (Baylor College of Medicine, priority 2001, dated 2007).
“Also recorded” adds a separate entry of the source.

Assays:
[1] = system: wild-type and CAR −/− mice; assay: Liver enlargement (liver mass relative to body weight); type: in vivo, mouse; conditions: for hyperplasia or hypertrophy in the liver: CAR knockout mice; for liver mass: three days of treatment
Method: FIG. 3A is a bar graph showing the liver enlargement and hepatocyte proliferation by PB or TCPOBOP. Mice (8–10 weeks old) were treated with PB or TCPOBOP for 3 days, and then both liver mass and body weight were measured. The data is presented as percentage of liver mass relative to total body weight.
This hepatomegaly is thought to be a reflection of both cellular hypertrophy and mitogenesis.

CYP3A11 = assay: Northern blot of CYP3A11 mRNA in liver; conditions: for induction of CYP311: CAR −/− mice; for induction of murine CYP3A11 mRNA: wild-type mice
Method: At least three mice between about 8–10 weeks old were used for each treatment. Mice were pretreated by intraperitoneal injection with corn oil, PB (100 mg/kg, Sigma), or TCBOPOP (3 mg/kg) for the indicated time. For a three day PB treatment, mice were injected intraperitoneally three times with PB, at one injection per day.

hepatic GSH = assay: Hepatic GSH content (non-protein thiol); type: in vivo, mouse; conditions: for hepatic GSH levels versus vehicle CAR (+/+) and pretreated CAR (−/−) animals: pretreated wild-type animals, two hours after APAP; for decrease in hepatic GSH: pretreated wild-type mice, two hours after APAP 250 mg/kg
Method: (§1) CAR (+/+) or CAR (−/−) animals pretreated with phenobarbital (PB), TCPOBOP (TC), or vehicle alone were administered a 250 mg/kg dose of APAP by intraperitoneal injection (n=5–7 per treatment group) (FIG. 11A). Serum was collected and alanine aminotransferase (ALT) levels were measured after 24 hours. Liver sections from different treatments were examined by histological staining (FIG. 11B). Liver samples from all treated animals were analyzed but only representative histology is presented. […] CAR (+/+) or CAR (−/−) animals were pretreated with PB, TCPOBOP (TC), or vehicle alone for three days (FIG. 11C). […] Liver samples treated as indicated were collected two hours after APAP and GSH levels were measured (n=5–7) (FIG. 11D).
FIG. 15A is a picture of the histological staining of liver sections after two hours of 500 mg/kg APAP treatment. Liver sections from animals injected with 500 mg/kg APAP for 0 or 2 hours were stained with hematoxylin and eosin. Arrows indicate initial stages of necrosis surrounding central veins. The same liver samples were collected and GSH levels were measured at 0 and 2 hours as indicated. FIG. 15B is a graph of these GSH levels.
For histologic examination of the treated mice, the left lobe of the livers was removed and immediately fixed in 4% formaldehyde-PBS solution, embedded in paraffin, sectioned at 5 μm, and stained with hematoxylin and eosin. Samples were examined under a light microscope. For RNA studies, total RNA was extracted using TRIzol Reagent (Invitrogen Life Technologies, Carlsbad, Calif.) according to the manufacture's instruction. Equivalent amount of RNA from 3–5 mice were pooled and 10 μg of each sample was subjected to northern blot analysis. […] Preparation of probes for CYP2B10 and CYP3A11 were described as previously (Wei et al., Nature 407:920–923, 2000 and Zelko et al., Mol Cell Biol 21:2838–2846, 2001). PCR primers used were: CYP1A2: 5′-[…]-3′ (SEQ ID NO: 19) and 5′-[…]-3′ (SEQ ID NO: 20), CYP2E1: 5′-[…]-3′ (SEQ ID NO: 21) and 5′-[…]-3′ (SEQ ID NO: 22), GSTPi: 5′-[…]-3′ (SEQ ID NO: 23) and 5′-[…]-3′ (SEQ ID NO: 24). Hepatic non-protein thiol was measured as an indication of hepatic GSH content. Mice were sacrificed two hours after intraperitoneal injection with APAP. Livers were removed and immediately homogenized in four volumes of 5% trichloroacetic acid and then centrifuged at 1,600×g for 15 minutes. Supernatant (0.5 ml) was mixed with 1.5 ml 0.1 mM Ellman's reagent [5,5′-dithio-bis(2-nitrobenzoic acid)] (Sigma, St Louis, Mo.) and allowed to stand at room temperature for 15 minutes. Absorbance was read at 412 nm using GSH solutions as quantitative standards.

[2] = system: CYP2E1, CYP1A2, CYP3A11, GSTPi; assay: Northern blot of APAP metabolizing genes in liver of wild-type and CAR null mice; conditions: for suppression of CYP2E1 and induction of CYP1A2, CYP3A11, GSTPi: CAR null mice; for CYP1A2 mRNA / CYP2E1 mRNA levels / CYP3A11 mRNA / GSTPi mRNA: wild-type animals, three days pretreatment
Method: as §1, with “Serum was collected and alanine aminotransferase (ALT) levels were measured after 24 hours.” left out
CAR (+/+) and CAR (−/−) animals were given 250 mg/kg, 500 mg/kg, or 800 mg/kg doses of APAP, respectively (FIG. 12A). […] Total liver RNA was prepared from 500 mg/kg APAP treated CAR (+/+) and CAR (−/−) livers at 0 and 2 hours as indicated. […] The same blot was stripped and re-probed with β-actin as loading control.
For histologic examination of the treated mice, the left lobe of the livers was removed and immediately fixed in 4% formaldehyde-PBS solution, embedded in paraffin, sectioned at 5 μm, and stained with hematoxylin and eosin. Samples were examined under a light microscope. For RNA studies, total RNA was extracted using TRIzol Reagent (Invitrogen Life Technologies, Carlsbad, Calif.) according to the manufacture's instruction. Equivalent amount of RNA from 3–5 mice were pooled and 10 μg of each sample was subjected to northern blot analysis. […] Hepatic non-protein thiol was measured as an indication of hepatic GSH content. Mice were sacrificed two hours after intraperitoneal injection with APAP. […] Supernatant (0.5 ml) was mixed with 1.5 ml 0.1 mM Ellman's reagent [5,5′-dithio-bis(2-nitrobenzoic acid)] […] Absorbance was read at 412 nm using GSH solutions as quantitative standards.

human CAR = target: T1, human CAR (Homo sapiens, UniProt Q14994); assay: CYP2B10 mRNA induction in humanized CAR mice lacking murine CAR; conditions: mice expressing only human CAR in liver, 24 hours
T1 sequence (Q14994 1-348 isoform Q14994-2): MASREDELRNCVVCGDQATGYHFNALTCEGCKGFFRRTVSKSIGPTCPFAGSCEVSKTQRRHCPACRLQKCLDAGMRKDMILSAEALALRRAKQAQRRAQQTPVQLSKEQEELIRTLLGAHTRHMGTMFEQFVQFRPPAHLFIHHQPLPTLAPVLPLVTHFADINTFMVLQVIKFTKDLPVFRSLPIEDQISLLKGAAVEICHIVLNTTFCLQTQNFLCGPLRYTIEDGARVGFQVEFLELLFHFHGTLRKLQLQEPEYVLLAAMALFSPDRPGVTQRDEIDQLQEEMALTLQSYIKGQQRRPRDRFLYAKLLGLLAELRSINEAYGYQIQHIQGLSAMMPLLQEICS
Method: Total RNA was prepared from the livers of the individual mice, and CYP2B10 mRNA expression was assessed by Northern blotting.
Mice heterozygous for the murine CAR gene mutation and lacking the human CAR transgene express only murine CAR. […] Mice homozygous for the murine CAR gene mutation and carrying the human CAR transgene express only human CAR in the liver.

CCC1(c2ccccc2)C(=O)NC(=O)NC1=O [PB, phenobarbital]
hyperplasia or hypertrophy in the liver [1]: not detected | liver mass ([1]; CAR −/− mice): did not show any evidence of increased liver mass | liver mass ([1]; wild-type mice): increase in liver mass | induction of CYP311 (CYP3A11): negligible level of induction | induction of murine CYP3A11 mRNA (CYP3A11): substantial induction | hepatic GSH levels versus vehicle CAR (+/+) and pretreated CAR (−/−) animals (hepatic GSH): significantly different | decrease in hepatic GSH (hepatic GSH): approximately 50% | suppression of CYP2E1 and induction of CYP1A2, CYP3A11, GSTPi [2]: Neither the suppression of CYP2E1 nor the induction of the other enzymes was observed | CYP1A2 mRNA [2]: induced | CYP2E1 mRNA levels [2]: modestly suppressed | CYP3A11 mRNA [2]: induced | GSTPi mRNA [2]: induced | induction of CYP2B10 mRNA (human CAR): induction of CYP2B10 mRNA; also recorded: induces a CAR target gene

Clc1cnc(Oc2ccc(Oc3ncc(Cl)cc3Cl)cc2)c(Cl)c1 [TCPOBOP, 1,4-bis[2-(3,5-dichloropyridyloxy)]benzene]
hyperplasia or hypertrophy in the liver [1]: not detected | liver mass ([1]; CAR −/− mice): did not show any evidence of increased liver mass | liver mass ([1]; wild-type mice): increase in liver mass | induction of CYP311 (CYP3A11): negligible level of induction | induction of murine CYP3A11 mRNA (CYP3A11): substantial induction | hepatic GSH levels versus vehicle CAR (+/+) and pretreated CAR (−/−) animals (hepatic GSH): significantly different | decrease in hepatic GSH (hepatic GSH): approximately 50% | suppression of CYP2E1 and induction of CYP1A2, CYP3A11, GSTPi [2]: Neither the suppression of CYP2E1 nor the induction of the other enzymes was observed | CYP1A2 mRNA [2]: induced | CYP2E1 mRNA levels [2]: modestly suppressed | CYP3A11 mRNA [2]: induced | GSTPi mRNA [2]: induced | induction of CYP2B10 mRNA (human CAR): did not respond; also recorded: not by TCPOBOP
